As usually defined, the IC50 is the concentration needed to halve the response being measured.

Results on 28 compounds are retold here after patent US9802937B2, “Substituted pyrazolo{4,3-D}pyrimidines as kinase inhibitors” (ORIGENIS GMBH, priority 2011, dated 2017).

One experiment deals with LRRK2 (Homo sapiens, UniProt Q5S007). The experiment in a line: LRRK2-LRRK2 G2019S-Assay (LanthaScreen Eu Kinase Binding Assay). Conditions: 5 nM LRRK2 or their mutants, 10 nM tracer 236, RT 1 h; read-out: LRRK2 Activities: IC50. As for the experimental part:
In the assay LanthaScreen™ Eu Kinase Binding Assay by Invitrogen Corporation (Carlsbad) the effect of invention of a compound on the phosphorylation is determined by measurement of fluorescence intensity emission ratio based on the binding and displacement of a proprietary, Alexa Fluor® 647-labeled, ATP-competitive kinase inhibitor scaffold (kinase tracer) to the kinase of interest. Binding of the tracer to the kinase is detected using a europium-labeled anti-tag antibody, which binds to the kinase of interest. Simultaneous binding of both the tracer and antibody to the kinase results in a high degree of FRET (fluorescence resonance energy transfer) from the europium (Eu) donor fluorophore to the Alexa Fluor® 647 acceptor fluorophore on the kinase tracer. Binding of an inhibitor to the kinase competes for binding with the tracer, resulting in a loss of FRET. The fluorescence intensity ratio is directly proportional to the amount of peptide phosphorylation.
To the wells of an 384 well small volume plate (Greiner, Frickenhausen) are added (i) the compound under test in 5% DMSO/distilled water (5 μl), (ii) 5 μl of the kinase antibody mixture resulting in a final concentration 5 nM LRRK2 or their mutants, 2 nM EU-Anti-GST antibody in 1× kinase buffer A. The reaction was started with addition of (iii) 5 μl resulting in a final concentration of 10 nM tracer 236. The assay plate was incubated at RT for 1 h and fluorescence intensitiy readings were collected using a TECAN M1000 at two wavelengthes of λex 340/λem 615 nm and λex 340/λm 665 nm with a delay time of 100 μs and an integration time of 200 μs after 60 minutes. The emission ratio was calculated by division of the acceptor/tracer emission ([…]) by the antibody/donor emission ([…]). The inhibitor concentration was plotted versus the emission ratio to determine the IC50 using XLFit 5.0 (IDBS, Guildford) to fit to a sigmoidal dose response curve with a variable slope.

A further experiment concerns the target T1, SYK kinase (Homo sapiens, UniProt P43405).
T1 construct: purchased Invitrogen, Carlsbad
The experiment in a line: SYK Assay (OMNIA KINASE ASSAY, SOX peptide fluorescence). It counts as biochemical. Conditions: apparent Ki calculated from the IC50 using the Cheng-Prusoff equation; 1 mM ATP, 30° C.; read-out: SYK Activities: Ki. The essentials: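 Apparent Ki values are derived by Cheng-Prusoff from IC50s of sigmoidal fits of reaction rate against compound concentration. Rates come from chelation-enhanced SOX fluorescence (λex 360/λem 485 nm, read every 30 s over 30 min) as the kinase phosphorylates 10 µM Omnia Tyr 7 peptide at 30 °C, with 1 mM ATP and 0.2 mM DTT.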

Sequence of LRRK2 (Q5S007 970-2527 limits assumed): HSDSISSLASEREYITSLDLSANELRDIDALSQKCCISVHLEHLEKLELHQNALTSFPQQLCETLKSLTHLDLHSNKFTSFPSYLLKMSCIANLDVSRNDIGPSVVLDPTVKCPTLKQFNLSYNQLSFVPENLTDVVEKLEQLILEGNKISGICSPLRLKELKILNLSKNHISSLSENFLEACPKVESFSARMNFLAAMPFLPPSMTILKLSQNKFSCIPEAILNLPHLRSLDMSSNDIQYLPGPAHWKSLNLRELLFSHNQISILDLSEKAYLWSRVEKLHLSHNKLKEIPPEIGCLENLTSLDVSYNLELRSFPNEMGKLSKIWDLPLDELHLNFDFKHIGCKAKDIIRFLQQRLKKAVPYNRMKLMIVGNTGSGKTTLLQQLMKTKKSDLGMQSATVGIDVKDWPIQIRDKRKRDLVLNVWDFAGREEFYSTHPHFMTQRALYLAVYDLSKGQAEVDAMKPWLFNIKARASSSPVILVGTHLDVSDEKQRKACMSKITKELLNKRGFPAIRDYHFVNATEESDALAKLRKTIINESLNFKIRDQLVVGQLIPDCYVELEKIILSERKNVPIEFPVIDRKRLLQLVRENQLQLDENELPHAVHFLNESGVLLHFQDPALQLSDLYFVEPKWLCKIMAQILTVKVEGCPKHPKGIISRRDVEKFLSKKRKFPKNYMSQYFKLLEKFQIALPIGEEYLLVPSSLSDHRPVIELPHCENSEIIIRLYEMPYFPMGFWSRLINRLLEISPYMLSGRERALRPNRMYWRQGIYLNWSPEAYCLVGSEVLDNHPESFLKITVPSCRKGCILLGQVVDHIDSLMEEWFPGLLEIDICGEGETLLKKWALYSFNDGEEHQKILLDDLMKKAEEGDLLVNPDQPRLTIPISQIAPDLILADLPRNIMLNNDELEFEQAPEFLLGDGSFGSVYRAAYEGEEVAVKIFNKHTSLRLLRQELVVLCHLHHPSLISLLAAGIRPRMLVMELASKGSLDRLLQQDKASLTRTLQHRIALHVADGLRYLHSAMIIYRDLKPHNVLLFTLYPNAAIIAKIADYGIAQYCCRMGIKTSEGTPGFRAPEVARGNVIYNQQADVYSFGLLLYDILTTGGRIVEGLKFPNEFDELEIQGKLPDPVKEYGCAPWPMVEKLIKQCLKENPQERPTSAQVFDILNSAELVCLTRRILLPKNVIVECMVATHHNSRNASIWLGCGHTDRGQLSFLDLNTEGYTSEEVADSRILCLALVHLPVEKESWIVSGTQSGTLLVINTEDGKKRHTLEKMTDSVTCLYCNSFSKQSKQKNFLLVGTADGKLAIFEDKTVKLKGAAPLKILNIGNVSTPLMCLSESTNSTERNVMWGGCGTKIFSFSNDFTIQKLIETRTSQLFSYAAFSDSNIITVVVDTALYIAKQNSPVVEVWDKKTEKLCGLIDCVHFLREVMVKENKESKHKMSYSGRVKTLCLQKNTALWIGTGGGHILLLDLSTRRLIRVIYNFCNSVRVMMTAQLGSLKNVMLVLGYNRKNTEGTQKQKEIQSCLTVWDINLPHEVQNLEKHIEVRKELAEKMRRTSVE

Consider `c1cc(-c2nc(Nc3ccc(N4CCOCC4)cc3)c3[nH]ncc3n2)cs1` [Example #73, N-(4-morpholinophenyl)-5-(thiophen-3-yl)-1H-pyrazolo[4,3-d]pyrimidin-7-amine], for which the IC50 on LRRK2 fell in the range of 10 to 100 nM. At SYK kinase, the Ki is less than 10 nM.

Regarding `CN(C)c1ccc(Nc2nc(-c3ccsc3)nc3cn[nH]c23)cc1` [Example #75, N1,N1-dimethyl-N4-(5-(thiophen-3-yl)-1H-pyrazolo[4,3-d]pyrimidin-7-yl)benzene-1,4-diamine], the IC50 at LRRK2 fell in the range of 10 to 100 nM. In addition, at SYK kinase, the Ki was less than 10 nM.

For `c1cc(-c2nc(Nc3ccc4cn[nH]c4c3)c3[nH]ncc3n2)cs1` [Example #76, N-(1H-indazol-6-yl)-5-(thiophen-3-yl)-1H-pyrazolo[4,3-d]pyrimidin-7-amine], the IC50 on LRRK2 was in the range of 10 to 100 nM. Also, the Ki on SYK kinase is less than 10 nM.

As for `c1cc(-c2nc(Nc3cc(C4CC4)[nH]n3)c3[nH]ncc3n2)cs1` [Example #77, N-(5-cyclopropyl-1H-pyrazol-3-yl)-5-(thiophen-3-yl)-1H-pyrazolo[4,3-d]pyrimidin-7-amine], the IC50 on LRRK2 lay in the range of 10 to 100 nM. The Ki at SYK kinase was 10 to 100 nM.

On to `COc1ccc(-c2nc(Nc3ccc(N(C)C)cc3)c3[nH]ncc3n2)cc1` [Example #78, N1-(5-(4-methoxyphenyl)-1H-pyrazolo[4,3-d]pyrimidin-7-yl)-N4,N4-dimethylbenzene-1,4-diamine], for which the IC50 on LRRK2 fell in the range of 100 to 1000 nM. Further, the Ki on SYK kinase was less than 10 nM.

As to `COc1ccc(-c2nc(Nc3ccc4cn[nH]c4c3)c3[nH]ncc3n2)cc1` [Example #79, N-(1H-indazol-6-yl)-5-(4-methoxyphenyl)-1H-pyrazolo[4,3-d]pyrimidin-7-amine], on LRRK2, the IC50 lay within 10 to 100 nM. Further, the Ki on SYK kinase is less than 10 nM.

With `COc1ccc(-c2nc(Nc3cccc(O)c3)c3[nH]ncc3n2)cc1` [Example #80, 3-((5-(4-methoxyphenyl)-1H-pyrazolo[4,3-d]pyrimidin-7-yl)amino)phenol], the IC50 on LRRK2 lay within 100 to 1000 nM. In addition, on SYK kinase, the Ki is 10 to 100 nM.

As for `COc1cccc(-c2nc(Nc3cccc(O)c3)c3[nH]ncc3n2)c1` [Example #81, 3-((5-(3-methoxyphenyl)-1H-pyrazolo[4,3-d]pyrimidin-7-yl)amino)phenol], the IC50 on LRRK2 is 100 to 1000 nM. Moreover, on SYK kinase, the Ki is 10 to 100 nM.

`c1csc(-c2nc(Nc3ccc4cn[nH]c4c3)c3[nH]ncc3n2)c1` [Example #82, N-(1H-indazol-6-yl)-5-(thiophen-2-yl)-1H-pyrazolo[4,3-d]pyrimidin-7-amine]: the IC50 at LRRK2 was less than 10 nM. Besides, the Ki at SYK kinase is less than 10 nM.

As for `c1cc(-c2nc(Nc3ccc4c(c3)NCCO4)c3[nH]ncc3n2)cs1` [Example #84, N-(5-(thiophen-3-yl)-1H-pyrazolo[4,3-d]pyrimidin-7-yl)-3,4-dihydro-2H-benzo[b][1,4]oxazin-6-amine], the IC50 on LRRK2 lay in the range of 10 to 100 nM. Also, on SYK kinase, the Ki is less than 10 nM.

With `Oc1cccc(Nc2nc(-c3ccsc3)nc3cn[nH]c23)c1` [Example #85, 3-((5-(thiophen-3-yl)-1H-pyrazolo[4,3-d]pyrimidin-7-yl)amino)phenol], the IC50 at LRRK2 was 100 to 1000 nM. In addition, the Ki on SYK kinase is 10 to 100 nM.

With `COc1ccc(-c2nc(Nc3cc(C4CC4)[nH]n3)c3[nH]ncc3n2)cc1` [Example #86, N-(5-cyclopropyl-1H-pyrazol-3-yl)-5-(4-methoxyphenyl)-1H-pyrazolo[4,3-d]pyrimidin-7-amine], on LRRK2, the IC50 was in the range of 100 to 1000 nM. In addition, at SYK kinase, the Ki is 10 to 100 nM.

Consider `COc1ccc(-c2nc(Nc3ccc4c(c3)NCCO4)c3[nH]ncc3n2)cc1` [Example #87, N-(5-(4-methoxyphenyl)-1H-pyrazolo[4,3-d]pyrimidin-7-yl)-3,4-dihydro-2H-benzo[b][1,4]oxazin-6-amine], for which the IC50 on LRRK2 lay in the range of 10 to 100 nM. In addition, on SYK kinase, the Ki was less than 10 nM.

Regarding `COc1cccc(-c2nc(Nc3cc(C4CC4)[nH]n3)c3[nH]ncc3n2)c1` [Example #88, N-(5-cyclopropyl-1H-pyrazol-3-yl)-5-(3-methoxyphenyl)-1H-pyrazolo[4,3-d]pyrimidin-7-amine], the IC50 on LRRK2 is 100 to 1000 nM. Moreover, the Ki at SYK kinase was 100 to 1000 nM.

Take `COc1cccc(-c2nc(Nc3ccc4c(c3)NCCO4)c3[nH]ncc3n2)c1` [Example #89, N-(5-(3-methoxyphenyl)-1H-pyrazolo[4,3-d]pyrimidin-7-yl)-3,4-dihydro-2H-benzo[b][1,4]oxazin-6-amine]: on LRRK2, the IC50 fell in the range of 10 to 100 nM. In addition, the Ki on SYK kinase is 10 to 100 nM.

As to `CN1CCC(c2nc(Nc3ccc4c(c3)NCCO4)c3[nH]ncc3n2)CC1` [Example #93, N-(5-(1-methylpiperidin-4-yl)-1H-pyrazolo[4,3-d]pyrimidin-7-yl)-3,4-dihydro-2H-benzo[b][1,4]oxazin-6-amine], on LRRK2, the IC50 was in the range of 100 to 1000 nM. Also, the Ki on SYK kinase was 10 to 100 nM.

Consider `COc1ccc(Nc2nc(-c3nc4ccccc4s3)nc3cn[nH]c23)cc1OC` [Example #96, 5-(benzo[d]thiazol-2-yl)-N-(3,4-dimethoxyphenyl)-1H-pyrazolo[4,3-d]pyrimidin-7-amine], for which the half-maximal inhibitory concentration (IC50) on LRRK2 was in the range of 100 to 1000 nM. Also, the Ki at SYK kinase was 10 to 100 nM.

As to `COc1ccc(Nc2nc(-c3cccc(-c4cccnc4)c3)nc3cn[nH]c23)cc1OC` [Example #101, N-(3,4-dimethoxyphenyl)-5-(3-(pyridin-3-yl)phenyl)-1H-pyrazolo[4,3-d]pyrimidin-7-amine], on LRRK2, the IC50 lay in the range of 100 to 1000 nM. Besides, the Ki on SYK kinase is 10 to 100 nM.

With `COc1ccccc1-c1nc(Nc2ccc(N3CCN(C)CC3)cc2)c2[nH]ncc2n1` [Example #108, 5-(2-methoxyphenyl)-N-(4-(4-methylpiperazin-1-yl)phenyl)-1H-pyrazolo[4,3-d]pyrimidin-7-amine], the IC50 on LRRK2 fell in the range of 100 to 1000 nM. Besides, the Ki at SYK kinase was 10 to 100 nM.

On to `COc1ccc(Nc2nc(-c3ccccc3OC)nc3cn[nH]c23)cc1OC` [Example #109, N-(3,4-dimethoxyphenyl)-5-(2-methoxyphenyl)-1H-pyrazolo[4,3-d]pyrimidin-7-amine], for which the IC50 on LRRK2 was in the range of 100 to 1000 nM. In addition, the Ki on SYK kinase is 10 to 100 nM.

In the case of `COc1ccccc1-c1nc(Nc2ccc3c(c2)NCCO3)c2[nH]ncc2n1` [Example #110, N-(5-(2-methoxyphenyl)-1H-pyrazolo[4,3-d]pyrimidin-7-yl)-3,4-dihydro-2H-benzo[b][1,4]oxazin-6-amine], the IC50 at LRRK2 lay in the range of 100 to 1000 nM. In addition, the Ki at SYK kinase was 10 to 100 nM.

Take `COc1ccccc1-c1nc(Nc2ccc3cn[nH]c3c2)c2[nH]ncc2n1` [Example #111, N-(1H-indazol-6-yl)-5-(2-methoxyphenyl)-1H-pyrazolo[4,3-d]pyrimidin-7-amine]: the IC50 at LRRK2 was in the range of 100 to 1000 nM. Besides, the Ki at SYK kinase was 10 to 100 nM.

Consider `CCN1CCN(c2ccc(Nc3nc(-c4ccccc4)nc4cn[nH]c34)cc2)CC1` [Example #119, N-(4-(4-ethylpiperazin-1-yl)phenyl)-5-phenyl-1H-pyrazolo[4,3-d]pyrimidin-7-amine], for which the IC50 on LRRK2 was 100 to 1000 nM. The Ki at SYK kinase is less than 10 nM.

As to `c1ccn2cc(-c3nc(Nc4ccc5[nH]ncc5c4)c4[nH]ncc4n3)nc2c1` [Example #126, 5-(imidazo[1,2-a]pyridin-2-yl)-N-(1H-indazol-5-yl)-1H-pyrazolo[4,3-d]pyrimidin-7-amine], at LRRK2, the IC50 was 100 to 1000 nM. For the same compound, the Ki on SYK kinase was 10 to 100 nM.

On to `O=C(c1ccc(Nc2nc(-c3cccs3)nc3cn[nH]c23)cc1)N1CCCC1` [Example #135, pyrrolidin-1-yl(4-((5-(thiophen-2-yl)-1H-pyrazolo[4,3-d]pyrimidin-7-yl)amino)phenyl)methanone], for which the IC50 at LRRK2 was less than 10 nM. In addition, the Ki on SYK kinase was 10 to 100 nM.

For the compound `c1csc(-c2nc(Nc3ccc(N4CCSCC4)cc3)c3[nH]ncc3n2)c1` [Example #136, N-(4-thiomorpholinophenyl)-5-(thiophen-2-yl)-1H-pyrazolo[4,3-d]pyrimidin-7-amine], the half-inhibitory concentration (IC50) at LRRK2 lay within 10 to 100 nM. In addition, the Ki on SYK kinase was 10 to 100 nM.

`O=S1(=O)CCN(c2ccc(Nc3nc(-c4cccs4)nc4cn[nH]c34)cc2)CC1` [Example #137, 4-(4-((5-(thiophen-2-yl)-1H-pyrazolo[4,3-d]pyrimidin-7-yl)amino)phenyl)thiomorpholine 1,1-dioxide]: the IC50 at LRRK2 is 10 to 100 nM. For the same compound, the Ki on SYK kinase is less than 10 nM.

As for `CN1CCN(c2ccc(Nc3nc(-c4cnc[nH]4)nc4cn[nH]c34)cc2)CC1` [Example #140, 5-(1H-imidazol-5-yl)-N-(4-(4-methylpiperazin-1-yl)phenyl)-1H-pyrazolo[4,3-d]pyrimidin-7-amine], on LRRK2, the IC50 fell in the range of 100 to 1000 nM. Besides, at SYK kinase, the Ki was 10 to 100 nM.
